Legend:
[1] = test system: coloboma (Cm) mutant mice; format: in vivo
Text: (§1) Heterozygote coloboma mice were originally purchased from The Jackson Laboratory (Bar Harbor, Me.) and were bred and maintained in our colony. In the current study, 20 mutant mice and 25 wild-type littermates, all aged 8 to 10 weeks, were used. Animals were divided into 4 groups: mutant/drug-treatment (n=11), mutant/vehicle-control (n=9), wild-type/drug-treatment (n=13), wild-type/vehicle-control (n=12). Age and gender were balanced among groups. All animals were housed as littermates (2-4 mice per cage) and were maintained on ad libitum food and water with a 12 hr light/dark cycle.
(§2) Open-field testing was performed under normal lighting conditions. Mice were brought into the experimental room and allowed at least 1 hr of acclimatization. Thirty minutes prior to testing, animals received an ip. injection of either d-amphetamine (4 mg/kg), eltoprazine (0.5 mg/kg) or saline. The mice were then placed in the activity monitor arenas (27×27×20 cm, Med Associates). Four animals of matching genotype and treatment were tested at one time. Each testing session lasted 40 minutes, after which animals were returned to their home cages. An automated infrared beam array system measured locomotor activity (total distance traveled) and number of center entries (zone crossings).

[2] = test system: wild-type mice; test: Open-field locomotor activity, wild-type littermates; format: in vivo
Text: as §1, §2

[3] = test system: DA and 5-HT release in dorsal striatum; test: In vivo microdialysis of DA and 5-HT release in dorsal striatum, wild-type mice; conditions: 0.1 mg/kg i.p.
Text: Wild-type and 5-HT1B knock out mice were implanted with microdialysis probes according to the methods of DeGroote et al., incorporated herein by reference, with the following modifications. (DeGroote et al., Eur. J. Pharmacol., 439:93-100, 2002). The dialysis probe was placed in the dorsal striatum, at coordinates AP +0.80, ML −1.7 mm from bregma, DV −4.0 mm from the dura, according to the stereotaxic atlas of the mouse brain (Franklin and Paxinos, 1997), and with the toothbar set at 0 mm. Microdialysis experiments were begun 16-20 hours after surgery, using previously described methods, which are incorporated herein by reference (DeGroote et al., 2002). After the start of the dialysis probe perfusion, mice were left undisturbed for three hours. Mice were tested in their home cage during the light period. Samples were collected every 20 minutes in vials containing 7.5 μl acetic acid and stored at −80° C. until HPLC analysis.
Release of DA and 5-HT was measured after peripheral administration of eltoprazine or intrastriatal administration of the selective 5-HT1B receptor agonist CP 93129 dihydrochloride (1,4-Dihydro-3-(1,2,3,6-tetrahydro-4-pyridinyl)-5H-pyrrolo[3,2-b]pyridin-5-one, obtained from Tocris, UK.) Drugs were dissolved in distilled water and further diluted in Ringer solution to the final concentration on the day of the experiment. 5-HT and DA were analyzed by HPLC with electrochemical detection. Samples (25 μl) were injected onto an Inertsil ODS-3 column (3 μM, 2.1×100 mm, Aurora Borealis, The Netherlands) using a Gilson pump and autosampler (Separations, The Netherlands). Separation was performed at 40° C. with the electrochemical detector (Intro, ANTEC Leyden, The Netherlands) set at a potential of 600 mV against an Ag/AgCl reference electrode. The signal was analyzed using Gynkotek software. The mobile phase consisted of 5 g/l (NH4)2SO4, 150 mg/l heptane sulphonic acid sodium salt, 0.5 g/l EDTA, 5% methanol, 30 μl/l triethylamine, 30 μl/l acetic acid, pH 4.6. Flow rate was 0.3 ml/min. The detection limit for 5-HT was 0.5 fmol/25 μl sample (signal to noise ratio 2).
Values for the first four consecutive microdialysis samples were averaged to calculate the basal levels of extracellular 5-HT and DA, uncorrected for probe recovery. Student's t-tests were used to compare basal 5-HT and DA values between the two genotypes. Effects of drug treatment were analyzed by a repeated multivariate analysis of variance (ANOVA) with time as ‘within’ and treatment (or dose) and genotype as ‘between’ factors.

[4] = test system: 5-HT receptor subtypes; conditions: cited from earlier work
[5] = 0.5 mg/kg i.p. vs saline (FIG. 6C, 6D)

c1cc2c(c(N3CCNCC3)c1)OCCO2 [eltoprazine, 1-(2,3-dihydro-1,4-benzodioxanyl-5-yl) piperazine]
reduction of total ambulatory distance from that of saline-treated Cm mutants ([1]; 0.5 mg/kg i.p.): more than 50% | number of zone crossings ([1]; 0.5 mg/kg i.p. (FIG. 5B)): decreased the number of zone crossings in Cm mutants to within the range of saline-treated wild-type mice | exploratory preference (center vs periphery of arena) ([1]; 0.5 mg/kg i.p. (FIG. 6A, 6B)): no effect on exploratory preference | rearing behavior [1, 5]: same pattern of rearing behavior | total ambulatory distance ([1]; 0.5 mg/kg i.p., 40 min session, saline 17725±6636 cm (FIG. 5A)): 8641±1811 | sedative effect ([1]; 0.5 mg/kg i.p., open field): no sedative effect | locomotor activity (distance traveled or zones crossed) ([2]; 0.5 mg/kg i.p.): did not influence the locomotor activity | exploratory preference (center vs periphery of arena) ([2]; 0.5 mg/kg i.p. (FIG. 6A, 6B)): no effect on exploratory preference | rearing behavior [2, 5]: same pattern of rearing behavior | time after administration to decrease of DA and 5-HT release [3]: ≤ 20 min | time striatal release of DA and 5-HT remained below basal levels after administration [3]: at least 100 minutes | basal release of 5-HT ([3]; awake mice): decreased basal release | basal release of DA ([3]; awake mice): decreased basal release | affinity for the 5-HT1A, 5-HT1B, and 5-HT2C receptors [4]: roughly equipotent affinity | affinity for the 5-HT1D receptor ([4]; compared with serotonin): relatively low affinity
